Experimental data taken from PubChem BioAssay AID1033 (Sanford-Burnham Center for Chemical Genomics, 2008).
Calls of active or inactive are those of the source. How the calls were made is not given here.

Target: Chaperone protein DnaK (Escherichia coli (strain K12)) (UniProt P0A6Y8)
Test: binders of DnaK substrate-binding domain, biophysical, NMR, chaperone (AID 1033)
Conditions: Purified DnaK SBD, NMR ligand binding

Chain of Chaperone protein DnaK (Escherichia coli (strain K12)) (P0A6Y8 whole entry, looked up, the tested form may be a part): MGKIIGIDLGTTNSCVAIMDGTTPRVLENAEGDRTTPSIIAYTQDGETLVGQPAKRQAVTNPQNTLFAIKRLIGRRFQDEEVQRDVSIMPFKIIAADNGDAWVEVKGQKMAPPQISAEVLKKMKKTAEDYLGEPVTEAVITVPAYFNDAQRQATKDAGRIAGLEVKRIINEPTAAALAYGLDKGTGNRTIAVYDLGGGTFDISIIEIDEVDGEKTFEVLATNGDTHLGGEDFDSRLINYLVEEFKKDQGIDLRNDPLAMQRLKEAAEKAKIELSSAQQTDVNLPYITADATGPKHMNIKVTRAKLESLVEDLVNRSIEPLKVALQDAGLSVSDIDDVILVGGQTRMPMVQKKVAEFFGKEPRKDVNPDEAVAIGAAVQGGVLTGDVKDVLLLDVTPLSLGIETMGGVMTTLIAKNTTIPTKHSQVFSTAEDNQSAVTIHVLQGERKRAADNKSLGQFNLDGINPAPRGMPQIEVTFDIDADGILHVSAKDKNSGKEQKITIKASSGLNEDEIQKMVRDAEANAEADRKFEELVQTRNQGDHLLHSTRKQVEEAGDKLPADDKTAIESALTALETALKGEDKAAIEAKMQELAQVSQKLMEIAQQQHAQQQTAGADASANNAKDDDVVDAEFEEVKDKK

Compound | Kd
O=C(Nc1ccc2c(c1)CCC2)c1cnccn1 | > 4 mM (inactive)
Nc1ncnc2nc[nH]c12 | > 4 mM (inactive)
NC(N)=NOCC[C@H](N)C(=O)O | > 4 mM (inactive)
CS(=O)(=O)N1CCN(C(=O)c2ccccc2F)CC1 | > 4 mM (inactive)
CC(C)NC(=O)c1cc(=O)n(C)c(=O)n1C | > 4 mM (inactive)
CC1=NN2C(=N)CC(=O)N=C2S1 | > 4 mM (inactive)
O=c1cc(-c2ccccc2)oc2cc(O)cc(O)c12 | > 4 mM (inactive)
CC(=O)Nc1ccc(NC(C)=O)c(C(F)(F)F)c1 | > 4 mM (inactive)
Nc1nc2ncc(CNc3ccc(C(=O)N[C@@H](CCC(=O)O)C(=O)O)cc3)nc2c(=O)[nH]1 | > 4 mM (inactive)
Nc1cc(F)cc(F)c1 | > 4 mM (inactive)
O=C(NC(=S)NCc1cccnc1)c1ccco1 | > 4 mM (inactive)
CC(=O)O[C@@H]1CC2C(C)(C)[C@H](O)C[C@H](O)[C@]2(C)C2CC[C@@]3(C)C(=CC(=O)O[C@H]3c3ccoc3)[C@@]21C (stereo not given in full) | > 4 mM (inactive)
c1ccc(SCc2nc(-c3ccncc3)no2)cc1 | > 4 mM (inactive)
O=C(c1cc(Cl)cc(Cl)c1)N1CCOCC1 | > 4 mM (inactive)
COC(=O)c1cnccc1C(F)(F)F | > 4 mM (inactive)
Cc1cc(C(=O)N2CCN(S(C)(=O)=O)CC2)cs1 | > 4 mM (inactive)
CSCCNC(C)=O | > 4 mM (inactive)
CC1(C)Cc2nc3[nH]c(=S)[nH]c(=O)c3cc2CO1 | > 4 mM (inactive)
O=C(NCc1cccs1)c1nn2cccnc2c1Cl | > 4 mM (inactive)
CC(=O)O[C@H]1CC[C@]2(C)C3CC[C@@]4(C)C(CC5O[C@@]6(CCC(C)CO6)[C@@H](C)C54)C3CC[C@@H]2C1 (stereo not given in full) | > 4 mM (inactive)
O=C(NCc1cccc2ccsc12)c1cccs1 | < 0.2 mM
Cc1cc(NC(=O)Cc2cccs2)no1 | > 4 mM (inactive)

Compound | Kd
COCc1c(CN)cnc(C)c1N | > 4 mM (inactive)
COc1ccc2c(c1)OCc1c-2oc2cc(OC)ccc12 | > 4 mM (inactive)
COC(=O)C[C@H]1C(C)(C)C(OC(C)=O)[C@]2(O)C=C3C(CC[C@]4(C)C3CC(=O)O[C@H]4c3ccoc3)C1(C)C2=O (stereo not given in full) | > 4 mM (inactive)
CC(=O)c1cc2c(s1)SCC(=O)N2 | > 4 mM (inactive)
CC1(C)C2CC(=O)[C@]3(C)C(CC[C@@]4(C)[C@H](c5ccoc5)OC(=O)[C@H]5O[C@]543)[C@@]2(C)C=C[C@@H]1O (stereo not given in full) | > 4 mM (inactive)
CS(C)=C1C(=O)NC(=O)N(c2ccccc2)C1=O | > 4 mM (inactive)
CC(=O)c1cc(C(N)=O)c(=S)[nH]c1C | > 4 mM (inactive)
CN1C2CC3C[C@H]1C(O3)C2O (stereo not given in full) | > 4 mM (inactive)
CS(=O)(=O)c1ccc2nc(N)sc2c1 | > 4 mM (inactive)
COc1c2occc2cc2ccc(=O)oc12 | > 4 mM (inactive)
O=C(c1ccc(F)cc1)N1CCOCC1 | > 4 mM (inactive)
O=C(O)c1cn(-c2ccccc2)nc1-c1cccnc1 | > 4 mM (inactive)
NC(=O)C1CCN(CC2CC=CCC2)CC1 (stereo not given) | > 4 mM (inactive)
CNC(=O)C1=NCCCc2cc(OC)c(OC)cc21 | > 4 mM (inactive)
CN(Cc1nc2ccccc2n1C)C(=O)c1cccs1 | > 4 mM (inactive)
Cn1cc(Cl)c(C(=O)NC2CCCC2)n1 | > 4 mM (inactive)
O=C(NCCO)c1cc2ccccc2cc1O | > 4 mM (inactive)
O=C(Nn1cnnc1)c1cc2c(s1)CCCC2 | > 4 mM (inactive)
Cc1nc2ccc(C(=O)O)cc2[nH]1 | > 4 mM (inactive)
Cn1nnc2cc(C(=O)O)ccc21 | > 4 mM (inactive)
CC(C)NC(=S)N1CCN(S(C)(=O)=O)CC1 | > 4 mM (inactive)
CN(Cc1nc2ccccc2n1C)S(C)(=O)=O | > 4 mM (inactive)

Compound | Kd
COCC(=O)Nc1c(C(N)=O)oc2ccccc12 | > 4 mM (inactive)
Cc1cc(Cl)ccc1NC(=O)C(N)=O | > 4 mM (inactive)
c1ccc(SCc2nc(-c3cccnc3)no2)cc1 | > 4 mM (inactive)
CC1CN=C(Nc2ccccc2)S1 (stereo not given) | > 4 mM (inactive)
O=C1NC(=O)C(C2SC(=O)NC2=O)S1 (stereo not given) | > 4 mM (inactive)
Cn1c2c(c(=O)n(C)c1=O)CN(Cc1ccco1)CN2 | > 4 mM (inactive)
CNC(=O)COc1cccc2c1CCNC2=O | > 4 mM (inactive)
O=C1C[C@@H](c2ccccc2)Oc2cc(O)cc(O)c21 | > 4 mM (inactive)
O=C1CSC(=Nc2cccc(C(F)(F)F)c2)N1 | > 4 mM (inactive)
O=C(O)c1ccc2snnc2c1 | > 4 mM (inactive)
COc1cc(OC)c(-c2nc3cnccc3n2C)cc1OC | > 4 mM (inactive)
Cc1nnc(SCC(=O)NCc2ccccc2)[nH]c1=O | > 4 mM (inactive)
O=C1CCCN1C(=O)CN1CCOCC1 | > 4 mM (inactive)
CN1CCN(CC(O)c2ccccc2)CC1 (stereo not given) | > 4 mM (inactive)
CN1CCN(C(=O)c2cc(-c3ccccc3)on2)CC1 | > 4 mM (inactive)
CCOC(=O)c1[nH]cnc1C(=O)OC(C)C | > 4 mM (inactive)
COc1ccccc1-c1nc(-c2ccc(C)nc2OC)no1 | > 4 mM (inactive)
Nc1ccccc1OC(F)(F)F | > 4 mM (inactive)
CC1CCN(S(=O)(=O)N(C)C)CC1 | > 4 mM (inactive)
O=c1/c(=C\c2cccnc2)sc2nc3ccccc3n12 | > 4 mM (inactive)
NC(=S)CN1CCCC1=O | > 4 mM (inactive)
OCCNC(=S)Nc1ccc(F)cc1 | > 4 mM (inactive)

Compound | Kd
O=C1C2CCCCC2C(=O)N1Cc1cccnc1 (stereo not given) | > 4 mM (inactive)
O=C(NCc1ccccc1)c1cnsn1 | > 4 mM (inactive)
O=C(Nc1ncc2ccccc2n1)c1cccs1 | < 0.2 mM
CN1C(=O)C2CC=C(Cl)CC2C1=O (stereo not given) | > 4 mM (inactive)
O=C(O)Cn1nc(-c2ccccc2)c2ccccc2c1=O | > 4 mM (inactive)
O=C(NC(=S)NC1CCSC1=O)c1ccco1 (stereo not given) | > 4 mM (inactive)
O=c1cnnc(N2CCCCC2)[nH]1 | > 4 mM (inactive)
Cc1ccc(N2C(=O)CC(Sc3ncn[nH]3)C2=O)cc1 (stereo not given) | > 4 mM (inactive)
O=C(NC1CC1)c1ccccc1[N+](=O)[O-] | > 4 mM (inactive)
O=C(Cc1cccs1)Nc1ccccn1 | > 4 mM (inactive)
NS(=O)(=O)c1ccc(NC(=O)/C=C\C(=O)O)cc1 | > 4 mM (inactive)
COc1cc2c(cc1OC)C1(O)C(=O)c3ccc(O)c(C(=O)O)c3OC1CO2 (stereo not given) | > 4 mM (inactive)
NC(=O)c1cccc(Cl)n1 | > 4 mM (inactive)
Nc1c2c3c(sc2nc(=O)n1N)CCCC3 | > 4 mM (inactive)
C/C=C(/C)C(=O)O[C@H]1CC[C@@]2(C)[C@@H]3CC[C@H]4[C@]5(O)C[C@H](O)[C@@]6(O)[C@@H](CN7C[C@@H](C)CC[C@H]7[C@@]6(C)O)[C@]5(O)C[C@@]42OC13O | > 4 mM (inactive)
COc1ccc2c(=O)c(CC(=O)O)coc2c1 | > 4 mM (inactive)
O=C(c1ccco1)N1CCN(c2ccc(Cl)cc2)CC1 | > 4 mM (inactive)
CN(C)C(=S)Nc1ccc([N+](=O)[O-])cc1 | > 4 mM (inactive)
O=S1(=O)C=CC(N2CCCCC2)C1 (stereo not given) | > 4 mM (inactive)
